# Measurements from US20120202847A1, “Novel Tetrahydroisoquinoline Compounds” (priority 2009, published 2012).
# Biological target: T1, DGAT1 enzyme (Homo sapiens, UniProt O75907)
# T1 construct: made in house
# T1 sequence (O75907 1-488): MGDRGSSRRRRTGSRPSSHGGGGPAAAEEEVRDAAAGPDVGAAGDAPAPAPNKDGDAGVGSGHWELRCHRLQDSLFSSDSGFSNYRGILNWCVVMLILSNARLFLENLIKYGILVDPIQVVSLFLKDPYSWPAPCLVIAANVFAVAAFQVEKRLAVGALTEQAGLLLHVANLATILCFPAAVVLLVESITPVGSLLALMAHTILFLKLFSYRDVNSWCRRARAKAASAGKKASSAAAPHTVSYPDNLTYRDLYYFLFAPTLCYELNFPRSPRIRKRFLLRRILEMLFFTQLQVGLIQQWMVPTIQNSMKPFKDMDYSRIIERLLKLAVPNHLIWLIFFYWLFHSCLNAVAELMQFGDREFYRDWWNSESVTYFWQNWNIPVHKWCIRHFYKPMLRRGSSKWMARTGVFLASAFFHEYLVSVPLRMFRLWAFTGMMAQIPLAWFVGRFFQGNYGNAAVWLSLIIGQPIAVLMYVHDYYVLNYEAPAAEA
# Test: DGAT1 inhibitory activity test
# Assay type: biochemical
# Settings: test compound concentration of 0.05 μg/ml; [14C]-oleoyl-CoA, 23° C., 30 minutes; read-out: Inhibitory Rate
# Protocol: (1) Preparation of DGAT1 Enzyme
# DGAT1 enzyme was prepared and stored according to the method described in US2007/0249620.
# (2) DGAT1 Inhibitory Activity Test
# A reaction solution having the following composition was incubated at room temperature (23° C.) for 30 minutes: 175 mM Tris-HCl (pH 8.0), 8 mM MgCl2, 1 mg/ml BSA, 0.3 mM 1,2-dioleoyl-sn-glycerol (10-fold concentration of EtOH solution, 10% added), 10 μM [^14C]-oleoyl-CoA (approximately 50 mCi/mmol), 0.5% Triton X-100, the DGAT1 enzyme (10 μg) obtained in Test Example 1(1), and a test compound or vehicle (DMSO/MeOH, 7:3 solution, 5% added), 50 μl in total. A reaction stop solution […] consisting of isopropanol/1-heptane/water (80:20:2, v/v/v) was added to the reaction solution and stirred. Subsequently, water […] and 1-heptane (100 μl) were added thereto and stirred. The 1-heptane layer […] was spotted onto a TLC plate and developed with a developing solvent consisting of 1-hexane/diethyl ether/acetic acid (85:15:1, v/v/v). The radioactivity of the triglyceride fraction was quantified using BAS2500 Bio Image Analyzer (FUJIFILM) and compared with the control. The inhibitory activity of the test compound was calculated according to the formula shown below. In this context, the radioactivity at no reaction (0 minute incubation) was used as background.
# Inhibitory Rate=100−[(Radioactivity of sample supplemented with test compound)−(Background)]/[(Radioactivity of control)−(Background)]×100
row,Structure (SMILES),inhibition at 0.05 µg/mL [%]
1,"O=C(O)C[C@H]1CC[C@H](OC(=O)N2CCc3cc(NC(=O)Nc4ccc(F)cc4F)ccc3C2)CC1 [Example 1, trans-6-[3-(2,4-difluoro-phenyl)-ureido]-3,4-dihydro-1H-isoquinoline-2-carboxylic acid 4-carboxymethyl-cyclohexyl ester]",≥ 50
2,"O=C(O)C[C@H]1CC[C@H](OC(=O)N2CCc3cc(NC(=O)Nc4cc(Cl)ccc4F)ccc3C2)CC1 [Example 12, trans-6-[3-(5-chloro-2-fluoro-phenyl)-ureido]-3,4-dihydro-1H-isoquinoline-2-carboxylic acid 4-carboxymethyl-cyclohexyl ester]",≥ 50
3,"O=C(O)C[C@H]1CC[C@H](OC(=O)N2CCc3cc(NC(=O)Nc4ccc(Cl)cc4Cl)ccc3C2)CC1 [Example 24, trans-6-[3-(2,4-dichloro-phenyl)-ureido]-3,4-dihydro-1H-isoquinoline-2-carboxylic acid 4-carboxymethyl-cyclohexyl ester]",≥ 50
4,"O=C(O)C[C@H]1CC[C@H](OC(=O)N2CCc3cc(NC(=O)Nc4c(F)cccc4F)ccc3C2)CC1 [Example 5, trans-6-[3-(2,6-difluoro-phenyl)-ureido]-3,4-dihydro-1H-isoquinoline-2-carboxylic acid 4-carboxymethyl-cyclohexyl ester]",≥ 50
5,"O=C(O)C[C@H]1CC[C@H](OC(=O)N2CCc3cc(NC(=O)Nc4cc(F)ccc4F)ccc3C2)CC1 [Example 4, trans-6-[3-(2,5-difluoro-phenyl)-ureido]-3,4-dihydro-1H-isoquinoline-2-carboxylic acid 4-carboxymethyl-cyclohexyl ester]",≥ 50
6,"Cc1ccc(F)c(NC(=O)Nc2ccc3c(c2)CCN(C(=O)O[C@H]2CC[C@H](CC(=O)O)CC2)C3)c1 [Example 7, trans-6-[3-(2-fluoro-5-methyl-phenyl)-ureido]-3,4-dihydro-1H-isoquinoline-2-carboxylic acid 4-carboxymethyl-cyclohexyl ester]",≥ 50
7,"O=C(O)C[C@H]1CC[C@H](OC(=O)N2CCc3cc(NC(=O)Nc4cccc(F)c4F)ccc3C2)CC1 [Example 3, trans-6-[3-(2,3-difluoro-phenyl)-ureido]-3,4-dihydro-1H-isoquinoline-2-carboxylic acid 4-carboxymethyl-cyclohexyl ester]",≥ 50
8,"O=C(O)C[C@H]1CC[C@H](OC(=O)N2CCc3cc(NC(=O)Nc4c(F)cc(F)cc4F)ccc3C2)CC1 [Example 15, trans-6-[3-(2,4,6-trifluoro-phenyl)-ureido]-3,4-dihydro-1H-isoquinoline-2-carboxylic acid 4-carboxymethyl-cyclohexyl ester]",≥ 50
9,"O=C(O)C[C@H]1CC[C@H](OC(=O)N2CCc3cc(NC(=O)Nc4cccc(C(F)(F)F)c4F)ccc3C2)CC1 [Example 21, trans-6-[3-(2-fluoro-3-trifluoromethyl-phenyl)-ureido]-3,4-dihydro-1H-isoquinoline-2-carboxylic acid 4-carboxymethyl-cyclohexyl ester]",≥ 50
10,"COc1ccc(NC(=O)Nc2ccc3c(c2)CCN(C(=O)O[C@H]2CC[C@H](CC(=O)O)CC2)C3)c(C)c1 [Example 19, trans-6-[3-(4-methoxy-2-methyl-phenyl)-ureido]-3,4-dihydro-1H-isoquinoline-2-carboxylic acid 4-carboxymethyl-cyclohexyl ester]",≥ 50
11,"O=C(O)C[C@H]1CC[C@H](OC(=O)N2CCc3cc(NC(=O)Nc4ccc(F)cc4C(F)(F)F)ccc3C2)CC1 [Example 18, trans-6-[3-(4-fluoro-2-trifluoromethyl-phenyl)-ureido]-3,4-dihydro-1H-isoquinoline-2-carboxylic acid 4-carboxymethyl-cyclohexyl ester]",≥ 50
12,"Cc1cccc(NC(=O)Nc2ccc3c(c2)CCN(C(=O)O[C@H]2CC[C@H](CC(=O)O)CC2)C3)c1F [Example 6, trans-6-[3-(2-fluoro-3-methyl-phenyl)-ureido]-3,4-dihydro-1H-isoquinoline-2-carboxylic acid 4-carboxymethyl-cyclohexyl ester]",≥ 50
13,"O=C(O)C[C@H]1CC[C@H](OC(=O)N2CCc3cc(NC(=O)Nc4ccc(F)c(F)c4F)ccc3C2)CC1 [Example 14, trans-6-[3-(2,3,4-trifluoro-phenyl)-ureido]-3,4-dihydro-1H-isoquinoline-2-carboxylic acid 4-carboxymethyl-cyclohexyl ester]",≥ 50
14,"O=C(O)C[C@H]1CC[C@H](OC(=O)N2CCc3cc(NC(=O)Nc4ccc(Cl)cc4F)ccc3C2)CC1 [Example 11, trans-6-[3-(4-chloro-2-fluoro-phenyl)-ureido]-3,4-dihydro-1H-isoquinoline-2-carboxylic acid 4-carboxymethyl-cyclohexyl ester]",≥ 50

# More lines, now with the values ahead:
row,inhibition at 0.05 µg/mL [%],Structure (SMILES)
1,≥ 50,"Cc1cc(NC(=O)Nc2ccc3c(c2)CCN(C(=O)O[C@H]2CC[C@H](CC(=O)O)CC2)C3)ccc1F [Example 38, trans-6-[3-(4-fluoro-3-methyl-phenyl)-ureido]-3,4-dihydro-1H-isoquinoline-2-carboxylic acid 4-carboxymethyl-cyclohexyl ester]"
2,≥ 50,"O=C(O)C[C@H]1CC[C@H](OC(=O)N2CCc3cc(NC(=O)Nc4ccc(Cl)cc4C(F)(F)F)ccc3C2)CC1 [Example 28, trans-6-[3-(4-chloro-2-trifluoromethyl-phenyl)-ureido]-3,4-dihydro-1H-isoquinoline-2-carboxylic acid 4-carboxymethyl-cyclohexyl ester]"
3,≥ 50,"Cc1c(Cl)cccc1NC(=O)Nc1ccc2c(c1)CCN(C(=O)O[C@H]1CC[C@H](CC(=O)O)CC1)C2 [Example 36, trans-6-[3-(3-chloro-2-methyl-phenyl)-ureido]-3,4-dihydro-1H-isoquinoline-2-carboxylic acid 4-carboxymethyl-cyclohexyl ester]"
4,≥ 50,"O=C(O)C[C@H]1CC[C@H](OC(=O)N2CCc3cc(NC(=O)Nc4cc(Cl)cc(Cl)c4)ccc3C2)CC1 [Example 43, trans-6-[3-(3,5-dichloro-phenyl)-ureido]-3,4-dihydro-1H-isoquinoline-2-carboxylic acid 4-carboxymethyl-cyclohexyl ester]"
5,≥ 50,"O=C(O)C[C@H]1CC[C@H](OC(=O)N2CCc3cc(NC(=O)Nc4ccc(Cl)c(Cl)c4)ccc3C2)CC1 [Example 40, trans-6-[3-(3,4-dichloro-phenyl)-ureido]-3,4-dihydro-1H-isoquinoline-2-carboxylic acid 4-carboxymethyl-cyclohexyl ester]"
6,≥ 50,"O=C(O)C[C@H]1CC[C@H](OC(=O)N2CCc3cc(NC(=O)Nc4cccc(Cl)c4Cl)ccc3C2)CC1 [Example 37, trans-6-[3-(2,3-dichloro-phenyl)-ureido]-3,4-dihydro-1H-isoquinoline-2-carboxylic acid 4-carboxymethyl-cyclohexyl ester]"
7,≥ 50,"COc1cc(NC(=O)Nc2ccc3c(c2)CCN(C(=O)O[C@H]2CC[C@H](CC(=O)O)CC2)C3)cc(OC)c1 [Example 39, trans-6-[3-(3,5-dimethoxy-phenyl)-ureido]-3,4-dihydro-1H-isoquinoline-2-carboxylic acid 4-carboxymethyl-cyclohexyl ester]"
8,≥ 50,"Cc1ccc(NC(=O)Nc2ccc3c(c2)CCN(C(=O)O[C@H]2CC[C@H](CC(=O)O)CC2)C3)cc1F [Example 30, trans-6-[3-(3-fluoro-4-methyl-phenyl)-ureido]-3,4-dihydro-1H-isoquinoline-2-carboxylic acid 4-carboxymethyl-cyclohexyl ester]"
9,≥ 50,"Cc1cc(C)cc(NC(=O)Nc2ccc3c(c2)CCN(C(=O)O[C@H]2CC[C@H](CC(=O)O)CC2)C3)c1 [Example 33, trans-6-[3-(3,5-dimethyl-phenyl)-ureido]-3,4-dihydro-1H-isoquinoline-2-carboxylic acid 4-carboxymethyl-cyclohexyl ester]"
10,≥ 50,"COc1cccc(NC(=O)Nc2ccc3c(c2)CCN(C(=O)O[C@H]2CC[C@H](CC(=O)O)CC2)C3)c1F [Example 42, trans-6-[3-(2-fluoro-3-methoxy-phenyl)-ureido]-3,4-dihydro-1H-isoquinoline-2-carboxylic acid 4-carboxymethyl-cyclohexyl ester]"
